Data reported in the supplement of paper PMC12463676, “Small-molecule dissolution of stress granules by redox modulation benefits ALS models” (Nature Chemical Biology, 2025).

Assays:
lipoamide = compound: NC(=O)CCCCC1CCSS1 [lipoamide]; assay: thermal stability z-score vs DMSO; higher = more thermally stabilized by treatment; settings: HeLa, lipoamide concentration 100 µM
Procedure: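 Cellular thermal proteome profiling in HeLa cells. Cells were treated with 100 µM lipoamide for 1 h, with or without 1 mM arsenate for a further 1 h, then heated to ten temperatures (37-66.3 °C), and soluble protein was quantified by TMT mass spectrometry relative to 0.1% DMSO controls. The thermal stability score (sum of log2 fold changes minus the abundance score) was transformed to a z-score; mean of n = 3 experiments.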

potassium arsenate = compound: O=[As]([O-])(O)O.[K+] [potassium arsenate]; assay: as above; settings: HeLa; arsenate concentration 1 mM
Procedure: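 Cellular thermal proteome profiling in HeLa cells treated with 1 mM arsenate for 1 h (DMSO pretreatment), heated to ten temperatures (37-66.3 °C). Soluble protein was quantified by TMT mass spectrometry relative to DMSO controls; the thermal stability score was transformed to a z-score; mean of n = 3 experiments.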

[1] = arsenate co-treatment: 1 mM arsenate 1 h
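Note: each temperature applied for 3 min, abundance score taken as mean log2 fold change at the two lowest temperatures, z-score obtained by mean subtraction and division by SD.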

Sequence of UniProt Q9GZP4 (Q9GZP4 whole entry): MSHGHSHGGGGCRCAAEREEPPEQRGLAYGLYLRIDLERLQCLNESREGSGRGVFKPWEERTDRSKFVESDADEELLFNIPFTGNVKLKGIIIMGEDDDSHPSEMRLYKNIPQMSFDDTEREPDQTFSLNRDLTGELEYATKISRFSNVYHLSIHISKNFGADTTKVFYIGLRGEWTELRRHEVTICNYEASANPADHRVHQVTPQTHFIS
Sequence of UniProt Q969H6 (Q969H6 whole entry): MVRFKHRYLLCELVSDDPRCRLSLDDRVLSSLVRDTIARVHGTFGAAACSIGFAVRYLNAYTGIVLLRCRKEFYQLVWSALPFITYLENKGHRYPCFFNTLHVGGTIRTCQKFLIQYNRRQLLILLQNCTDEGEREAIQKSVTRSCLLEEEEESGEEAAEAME
Sequence of UniProt Q96QC0 (Q96QC0 whole entry): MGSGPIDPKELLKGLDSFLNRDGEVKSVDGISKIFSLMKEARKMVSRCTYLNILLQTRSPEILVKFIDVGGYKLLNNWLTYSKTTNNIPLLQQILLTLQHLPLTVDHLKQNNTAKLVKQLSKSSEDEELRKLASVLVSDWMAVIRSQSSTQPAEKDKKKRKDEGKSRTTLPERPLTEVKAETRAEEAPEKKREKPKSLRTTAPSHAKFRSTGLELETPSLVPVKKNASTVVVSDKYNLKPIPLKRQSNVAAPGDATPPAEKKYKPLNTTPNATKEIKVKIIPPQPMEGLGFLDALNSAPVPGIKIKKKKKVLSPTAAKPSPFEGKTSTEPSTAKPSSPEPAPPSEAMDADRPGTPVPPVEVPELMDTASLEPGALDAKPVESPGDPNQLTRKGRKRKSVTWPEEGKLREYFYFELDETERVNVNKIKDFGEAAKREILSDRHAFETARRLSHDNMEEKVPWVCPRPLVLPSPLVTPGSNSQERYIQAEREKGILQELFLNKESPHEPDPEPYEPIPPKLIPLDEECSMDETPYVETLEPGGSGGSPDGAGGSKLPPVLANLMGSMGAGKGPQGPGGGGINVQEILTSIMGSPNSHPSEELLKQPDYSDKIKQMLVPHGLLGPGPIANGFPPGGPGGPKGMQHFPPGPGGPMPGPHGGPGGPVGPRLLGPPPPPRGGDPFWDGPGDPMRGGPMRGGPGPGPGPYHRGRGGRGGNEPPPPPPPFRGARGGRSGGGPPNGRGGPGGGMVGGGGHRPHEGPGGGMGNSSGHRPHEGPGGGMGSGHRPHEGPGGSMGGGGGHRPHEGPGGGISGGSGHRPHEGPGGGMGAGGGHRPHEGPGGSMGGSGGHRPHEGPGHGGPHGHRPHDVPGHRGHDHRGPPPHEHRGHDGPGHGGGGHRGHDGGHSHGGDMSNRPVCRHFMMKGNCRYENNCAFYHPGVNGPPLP
Sequence of UniProt O14977 (O14977 whole entry): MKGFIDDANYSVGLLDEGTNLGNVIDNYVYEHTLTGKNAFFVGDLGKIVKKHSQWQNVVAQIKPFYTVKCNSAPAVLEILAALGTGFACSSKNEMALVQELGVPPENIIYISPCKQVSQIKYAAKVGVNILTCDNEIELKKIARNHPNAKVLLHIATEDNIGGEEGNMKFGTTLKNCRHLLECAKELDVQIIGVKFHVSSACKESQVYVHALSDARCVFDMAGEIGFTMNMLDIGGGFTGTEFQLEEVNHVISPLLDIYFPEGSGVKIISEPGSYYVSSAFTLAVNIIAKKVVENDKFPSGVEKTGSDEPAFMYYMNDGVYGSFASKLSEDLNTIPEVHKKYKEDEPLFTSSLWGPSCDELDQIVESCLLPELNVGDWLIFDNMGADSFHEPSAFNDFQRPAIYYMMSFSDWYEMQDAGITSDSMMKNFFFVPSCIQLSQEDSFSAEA
Sequence of UniProt Q9Y6H1 (Q9Y6H1 whole entry): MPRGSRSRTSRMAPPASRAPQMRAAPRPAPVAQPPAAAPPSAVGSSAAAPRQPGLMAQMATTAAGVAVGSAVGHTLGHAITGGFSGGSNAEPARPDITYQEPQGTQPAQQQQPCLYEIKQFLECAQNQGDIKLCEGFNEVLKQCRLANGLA
Sequence of UniProt Q9Y4Y9 (Q9Y4Y9 whole entry): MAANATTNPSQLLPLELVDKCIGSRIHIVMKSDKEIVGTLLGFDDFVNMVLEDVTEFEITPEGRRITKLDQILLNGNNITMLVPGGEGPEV
Sequence of UniProt Q92539 (Q92539 whole entry): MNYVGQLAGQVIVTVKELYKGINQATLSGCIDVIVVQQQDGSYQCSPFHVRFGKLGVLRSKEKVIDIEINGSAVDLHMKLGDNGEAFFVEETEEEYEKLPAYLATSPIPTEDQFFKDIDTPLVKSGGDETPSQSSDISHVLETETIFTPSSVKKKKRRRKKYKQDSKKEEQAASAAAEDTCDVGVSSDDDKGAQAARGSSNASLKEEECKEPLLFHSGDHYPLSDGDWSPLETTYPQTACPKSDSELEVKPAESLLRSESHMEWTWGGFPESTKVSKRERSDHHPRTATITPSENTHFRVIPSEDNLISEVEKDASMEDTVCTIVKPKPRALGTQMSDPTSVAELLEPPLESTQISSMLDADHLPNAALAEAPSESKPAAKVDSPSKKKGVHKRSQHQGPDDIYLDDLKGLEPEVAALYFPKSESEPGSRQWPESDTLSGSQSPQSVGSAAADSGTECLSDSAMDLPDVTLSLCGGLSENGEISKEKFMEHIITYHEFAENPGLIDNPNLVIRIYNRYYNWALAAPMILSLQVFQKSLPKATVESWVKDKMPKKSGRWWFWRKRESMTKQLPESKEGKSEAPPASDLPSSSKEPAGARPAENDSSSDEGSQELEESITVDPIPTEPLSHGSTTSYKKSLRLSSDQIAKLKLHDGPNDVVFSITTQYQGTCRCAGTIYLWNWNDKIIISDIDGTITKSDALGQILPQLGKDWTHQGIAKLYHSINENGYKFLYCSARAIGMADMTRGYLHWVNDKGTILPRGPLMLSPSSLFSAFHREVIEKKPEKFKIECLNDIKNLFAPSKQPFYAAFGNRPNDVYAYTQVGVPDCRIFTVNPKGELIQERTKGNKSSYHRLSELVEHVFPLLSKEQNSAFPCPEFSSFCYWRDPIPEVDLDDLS
Sequence of UniProt Q5NDL2 (Q5NDL2 whole entry): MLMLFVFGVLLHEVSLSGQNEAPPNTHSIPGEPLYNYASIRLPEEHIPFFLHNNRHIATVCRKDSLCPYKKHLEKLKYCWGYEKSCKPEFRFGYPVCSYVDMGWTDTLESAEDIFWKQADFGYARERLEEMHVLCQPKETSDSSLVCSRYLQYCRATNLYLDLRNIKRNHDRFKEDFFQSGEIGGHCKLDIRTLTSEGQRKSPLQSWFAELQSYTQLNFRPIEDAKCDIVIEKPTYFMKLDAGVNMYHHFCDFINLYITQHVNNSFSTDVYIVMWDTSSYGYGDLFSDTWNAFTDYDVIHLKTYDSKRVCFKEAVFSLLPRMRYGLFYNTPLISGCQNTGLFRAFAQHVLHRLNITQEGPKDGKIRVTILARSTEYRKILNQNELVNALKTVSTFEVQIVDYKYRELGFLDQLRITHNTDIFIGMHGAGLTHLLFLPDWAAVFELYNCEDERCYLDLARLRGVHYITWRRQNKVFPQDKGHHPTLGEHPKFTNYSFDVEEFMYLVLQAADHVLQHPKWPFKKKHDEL
Sequence of UniProt Q9H633 (Q9H633 whole entry): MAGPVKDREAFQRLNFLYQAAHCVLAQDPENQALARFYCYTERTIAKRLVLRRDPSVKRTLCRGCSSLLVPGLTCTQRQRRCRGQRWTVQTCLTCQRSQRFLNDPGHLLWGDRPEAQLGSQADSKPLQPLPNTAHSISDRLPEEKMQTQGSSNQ
Sequence of UniProt Q6P4Q7 (Q6P4Q7 whole entry): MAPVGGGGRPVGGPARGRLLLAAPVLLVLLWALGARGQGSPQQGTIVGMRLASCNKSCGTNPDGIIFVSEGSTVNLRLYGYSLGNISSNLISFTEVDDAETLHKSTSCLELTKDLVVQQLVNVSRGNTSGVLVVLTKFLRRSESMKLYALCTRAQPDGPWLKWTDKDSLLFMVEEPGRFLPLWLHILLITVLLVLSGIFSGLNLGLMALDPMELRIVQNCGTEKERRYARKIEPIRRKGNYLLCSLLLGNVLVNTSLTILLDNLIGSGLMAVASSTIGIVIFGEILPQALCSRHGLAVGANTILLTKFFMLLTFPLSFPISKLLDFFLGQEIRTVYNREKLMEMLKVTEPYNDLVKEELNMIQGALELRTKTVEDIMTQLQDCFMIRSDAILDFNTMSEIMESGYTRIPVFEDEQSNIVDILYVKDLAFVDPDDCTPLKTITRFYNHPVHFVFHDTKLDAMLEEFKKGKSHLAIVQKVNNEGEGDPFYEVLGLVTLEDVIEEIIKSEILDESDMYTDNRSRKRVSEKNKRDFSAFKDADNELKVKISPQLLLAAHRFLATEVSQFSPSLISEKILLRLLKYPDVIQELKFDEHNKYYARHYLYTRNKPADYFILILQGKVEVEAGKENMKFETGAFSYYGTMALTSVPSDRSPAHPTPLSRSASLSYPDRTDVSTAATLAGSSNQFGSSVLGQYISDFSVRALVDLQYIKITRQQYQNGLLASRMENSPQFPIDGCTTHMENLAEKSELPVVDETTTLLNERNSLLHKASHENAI
Sequence of UniProt P63165 (P63165 whole entry): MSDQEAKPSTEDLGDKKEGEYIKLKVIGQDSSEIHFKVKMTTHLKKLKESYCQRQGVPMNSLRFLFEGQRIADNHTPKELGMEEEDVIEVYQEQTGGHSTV
Sequence of UniProt Q86YS6 (Q86YS6 whole entry): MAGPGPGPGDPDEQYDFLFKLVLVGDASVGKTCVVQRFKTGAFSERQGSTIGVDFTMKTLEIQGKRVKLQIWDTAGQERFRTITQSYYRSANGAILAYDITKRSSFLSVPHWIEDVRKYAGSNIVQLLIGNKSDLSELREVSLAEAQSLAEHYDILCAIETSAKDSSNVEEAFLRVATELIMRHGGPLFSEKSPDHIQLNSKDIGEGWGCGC
Sequence of UniProt Q9Y237 (Q9Y237 whole entry): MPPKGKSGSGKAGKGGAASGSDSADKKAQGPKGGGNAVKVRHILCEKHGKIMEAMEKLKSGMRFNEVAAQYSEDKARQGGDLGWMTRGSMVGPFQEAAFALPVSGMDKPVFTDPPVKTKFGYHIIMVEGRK

Target | thermal stability z-score (lipoamide; [1]) | thermal stability z-score (lipoamide; arsenate co-treatment: none) | thermal stability z-score (potassium arsenate)
TLE3 (UniProt Q04726) | 0.171 | 0.329 | -0.674
GIGYF2 (UniProt Q6Y7W6) | -0.406 | -0.109 | 0.0976
SLC25A17 (UniProt O43808) | -0.416 | -0.577 | -0.824
ZFYVE9 (UniProt O95405) | -0.0978 | -0.0701 | -0.021
GATAD2A (UniProt Q86YP4) | -0.0451 | -0.00448 | -0.412
NIPA2 (UniProt Q8N8Q9) | 0.499 | 0.101 | 0.36
POP5 (UniProt Q969H6) | -0.5 | -0.587 | -0.617
GHITM (UniProt Q9H3K2) | -0.161 | -0.193 | -0.0999
GTF3C5 (UniProt Q9Y5Q8) | 0.0669 | 0.0127 | -0.367
CNNM4 (UniProt Q6P4Q7) | 0.923 | 0.49 | 0.213
NAGA (UniProt P17050) | -0.786 | -0.0771 | 0.546
AMZ2 (UniProt Q86W34) | 0.33 | -0.032 | 0.211
CFDP1 (UniProt Q9UEE9) | 0.254 | 0.185 | -0.21
RPP21 (UniProt Q9H633) | -0.411 | -0.242 | -0.209
SUMO1 (UniProt P63165) | -0.294 | -0.0784 | 1.09
CTPS1 (UniProt P17812) | -0.159 | -0.286 | -0.228
BCL9L (UniProt Q86UU0) | 0.0577 | 0.096 | -0.128
PUM1 (UniProt Q14671) | -0.249 | -0.0302 | -0.174
LSM5 (UniProt Q9Y4Y9) | -0.69 | 0.0925 | -1.23
AP1S1 (UniProt P61966) | -0.264 | -0.339 | 0.802
NFATC2IP (UniProt Q8NCF5) | -0.124 | -0.127 | -0.254
CMAS (UniProt Q8NFW8) | -0.0844 | -0.141 | -0.438
RAB43 (UniProt Q86YS6) | -0.0743 | 1.38 | 1.35
CAP1 (UniProt Q01518) | 0.524 | 0.502 | -0.0608

Target | thermal stability z-score (lipoamide; [1]) | thermal stability z-score (lipoamide; arsenate co-treatment: none) | thermal stability z-score (potassium arsenate)
SETMAR (UniProt Q53H47) | -0.298 | -0.25 | -0.122
PFAS (UniProt O15067) | -0.279 | 0.208 | -1.25
KLF4 (UniProt O43474) | -0.157 | -0.548 | -1.07
FAM50A (UniProt Q14320) | -0.0555 | 0.352 | 0.455
KYNU (UniProt Q16719) | 0.77 | 0.403 | 0.0266
THOC7 (UniProt Q6I9Y2) | 0.192 | 0.175 | -0.26
CDKAL1 (UniProt Q5VV42) | 1.09 | 0.835 | -0.903
PIN4 (UniProt Q9Y237) | 0.199 | -0.0862 | -0.422
DTX3L (UniProt Q8TDB6) | -0.78 | -0.366 | 0.176
SGTB (UniProt Q96EQ0) | 0.0457 | 0.112 | -0.308
BPTF (UniProt Q12830) | 0.137 | 0.144 | -0.181
PLA2G4A (UniProt P47712) | -0.308 | -0.439 | -0.294
KRI1 (UniProt Q8N9T8) | 0.198 | -0.118 | -0.376
CHCHD2 (UniProt Q9Y6H1) | 1.56 | 1.34 | 0.592
MFF (UniProt Q9GZY8) | -0.338 | -0.0711 | 0.0903
WDR5 (UniProt P61964) | 1.18 | 0.552 | 0.234
ERO1A (UniProt Q96HE7) | -0.923 | 0.193 | 0.59
GRAMD1B (UniProt Q3KR37) | -0.102 | 0.0763 | -0.00294
FAM177A1 (UniProt Q8N128) | -0.313 | -0.584 | 1.04
ABCC4 (UniProt O15439) | 0.622 | 0.731 | -0.0795
FKBPL (UniProt Q9UIM3) | 0.222 | 0.087 | -0.0646
NARS2 (UniProt Q96I59) | -0.454 | 0.256 | -0.19
PPP1R10 (UniProt Q96QC0) | 0.565 | 0.255 | 0.332
MRPL44 (UniProt Q9H9J2) | -0.467 | -0.447 | -0.354

Target | thermal stability z-score (lipoamide; [1]) | thermal stability z-score (lipoamide; arsenate co-treatment: none) | thermal stability z-score (potassium arsenate)
PITHD1 (UniProt Q9GZP4) | -0.537 | 0.337 | 0.158
AZIN1 (UniProt O14977) | 0.745 | 0.806 | 0.62
GAPDH (UniProt P04406) | -1.1 | -0.00491 | -1.5
OTULIN (UniProt Q96BN8) | -0.269 | -0.186 | -0.452
CCNK (UniProt O75909) | 0.743 | -0.222 | -0.771
HEL | -0.604 | -0.392 | -0.18
AIP (UniProt O00170) | -0.0398 | -0.833 | -2.08
FAM32A (UniProt Q9Y421) | 0.832 | 0.827 | 0.375
EGFR (UniProt P00533) | -1.07 | -0.989 | -1.02
RPL37 (UniProt P61927) | 0.254 | 0.203 | -0.915
MAPK7 (UniProt Q13164) | 0.0307 | 0.141 | 0.334
DENND4C (UniProt Q5VZ89) | 0.201 | 0.677 | 0.337
EOGT (UniProt Q5NDL2) | -1.18 | -0.664 | 0.0751
COX20 (UniProt Q5RI15) | -0.11 | -0.155 | -0.19
SEH1L (UniProt Q96EE3) | 0.886 | 0.611 | 0.803
KPNA2 (UniProt P52292) | 0.22 | -0.118 | -0.353
PRPS1 (UniProt P60891) | 0.0132 | -0.285 | -1.1
RAP1GAP (UniProt P47736) | -0.459 | -0.26 | 0.233
PCBP2 (UniProt Q15366) | -0.426 | -0.239 | 0.141
CCDC102A (UniProt Q96A19) | -0.156 | -0.283 | -0.327
CPOX (UniProt P36551) | 0.526 | -0.338 | -0.525
LPIN2 (UniProt Q92539) | 0.528 | 0.214 | 0.00612
SCAF8 (UniProt Q9UPN6) | -0.0718 | -0.03 | 0.155
